No end group written: not given here.
Tests used:
[1] = test system: Human melanocytes; assay: Melanin content measurement in melanocytes; type: cell-based; details: 10 μM (peptide: similar concentration), 7 days
Protocol: (§1) Primary human melanocytes were kindly obtained from Dr. Todd Ridky in the department of dermatology, Stanford University. Cells were cultured in Medium 254 (Cascade Biologics) supplemented with Human Melanocyte Growth Supplement (HMGS, Cascade Biologics). They were grown in a humidified atmosphere with 5% CO2 at 37° C. Cell plating densities were arranged that those cells were in log phase of growth for the duration of incubation with test samples. Subcultures of cells were plated at a density of 4×10^4 cells/cm^2. Approximately 24 h later, fresh medium and test samples were added. Cells were harvested 7 d after test samples addition, replaced with fresh medium and test samples every two days.
Human melanocytes were cultured in 6-well plates and treated with individual test samples for 7 d. After washes in PBS, cells were detached by short incubation in trypsin/EDTA (0.25%/0.1% in PBS). An aliquot was used for cell count. […] Melanin concentrations were calculated by comparison of the OD at 475 nm of unknown samples with a standard curve obtained with synthetic melanin.
To provide more direct evidence that RA peptide inhibits melanogenesis, its effects on melanin production in melanocytes was studied. The contents of melanin in melanocytes treated with no addition, RA peptide or HQ for 7 days were determined with a spectrophotometer and compared with a melanin standard curve. […]

[2] = target: tyrosinase; details: read-out: published IC50; cited from earlier work
[3] = test system: Primary human melanocytes; type: cell-based; details: 24 h, 100 µM
Protocol: as §1
Cell viability was determined using WST-1 Cell Proliferation Kit (Roche). Cells were plated at 1×10^5/well (24-well plates). Twenty-four hours after plating, test samples were added and cultures were incubated for an additional 7 d. At the end of the treatment period, 50 μl WST-1 was added to each well. The plates were placed at 37° C. for 4 h in the dark and the absorbance at 450 nm was read using microplate. Usually, 3 replicate wells were measured for each group to be tested. Wells containing medium but no cells served as controls. Cell viability was calculated according to the equation: cell viability=absorbance (sample tested)/absorbance (medium only)×100%. Assay of Cellular Tyrosinase Activity […]

[4] = test system: Primary human melanocytes; assay: Melanocyte proliferation rate; type: cell-based; details: up to 10 μM
Protocol: as §1
To exclude the possibility that the inhibitory effects of RA peptide on melanogenesis might be caused by the inhibition of cell growth, we compared the number of cells grown in the presence and absence of test samples.

[5] = target: T1, cellular tyrosinase activity of melanocytes (Homo sapiens, UniProt P14679); assay: Assay of cellular tyrosinase activity with L-DOPA as substrate; type: cell-based; details: 7 d treatment
T1 construct: Primary human melanocytes were kindly obtained from Dr. Todd Ridky; endogenous in cells; host or cells: primary human melanocytes (passage 3)
T1 sequence (P14679 19-529): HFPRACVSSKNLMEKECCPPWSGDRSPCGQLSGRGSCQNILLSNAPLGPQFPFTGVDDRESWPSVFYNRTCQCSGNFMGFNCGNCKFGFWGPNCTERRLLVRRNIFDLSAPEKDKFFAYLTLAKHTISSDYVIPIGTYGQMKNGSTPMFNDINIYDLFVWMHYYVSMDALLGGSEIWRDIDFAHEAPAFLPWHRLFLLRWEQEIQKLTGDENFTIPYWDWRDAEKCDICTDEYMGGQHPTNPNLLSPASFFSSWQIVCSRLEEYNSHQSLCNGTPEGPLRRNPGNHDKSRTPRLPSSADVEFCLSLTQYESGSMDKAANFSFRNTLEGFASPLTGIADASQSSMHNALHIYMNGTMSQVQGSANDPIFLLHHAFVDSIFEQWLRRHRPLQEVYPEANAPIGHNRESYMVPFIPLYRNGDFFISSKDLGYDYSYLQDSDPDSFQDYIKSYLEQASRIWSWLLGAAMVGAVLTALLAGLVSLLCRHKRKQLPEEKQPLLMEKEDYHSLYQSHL
Protocol: as §1
Human melanocytes were cultured in 6-well plates. After treatment with individual test samples for 7 d, the cells were washed with phosphate-buffered saline (PBS) and lysed with phosphate buffer, pH 6.8, containing 1% Triton X-100. After sonication, lysates were clarified by centrifugation at 10000 g for 10 min. After determination of protein content with a Bio-Rad protein assay kit, lysates were added to 96 well culture plate containing equal amounts of protein (40 μg), and adjusted with lysis buffer to reach 150 μl in each well. 75 μl of 10 mM L-DOPA dissolved in lysis buffer was added to each well. The culture plate was incubated at 37° C. for 30 min, and then read with the spectrophotometer at 475 nm.
Tyrosinase inhibitory activity was calculated with the following formula: tyrosinase inhibition (%)=[1−(O.D.475 of sample/O.D.475 of control)]×100%.
We also examined the inhibitory action of RA peptide on cellular tyrosinase activity of melanocytes, using L-DOPA as substrate. After centrifugation and protein calculation, certain volume of supernatant for each sample was transferred to 96 well culture plate by compensating a certain protein content in each well, and adjusted the volume of each well to 150 μl with 0.067M of phosphate buffer (pH 6.8). 75 μl of 10 mM L-DOPA dissolved in phosphate buffer (pH 6.8) was added to each well. The culture plate was incubated at 37° C. for 30 min, and then read with the spectrophotometer at 475 nm.

[6] = test system: Mushroom tyrosinase; assay: Tyrosinase inhibition at single concentration (melanin synthesis evaluation); type: biochemical; details: for considered effective in these assays: mushroom tyrosinase and B-16 assays, SF 8 mM, PLG 3 mM
Protocol: Peptides SF, VL, and PLG-OH were tested, along with controls of kojic acid, a known tyrosinase inhibitor, and licorice extracts, a known tyrosinase inhibitor (See J. Agric. Food Chem., 51 (5), 1201-1207, 2003). Tyrosinase inhibition was measured using mushroom tyrosinase (Sigma Aldrich cat # T3824) and L-tyrosine (Sigma Aldrich cat # T8566) in an assay buffer consisting of phosphate buffer (1.0M, pH 6.8) and 5%, and absolute water. The assay buffer, with test sample concentrations and tyrosinase, was incubated in the dark at room temperature for one hour and absorption was read.

[7] = target: Mushroom tyrosinase; assay: Mushroom tyrosinase inhibition, colorimetric detection of dopachrome (IC50, kinetics); type: biochemical; details: L-tyrosine substrate, pH 6.8, 37° C., absorbance 475 nm at 30 min
Protocol: Mushroom tyrosinase, L-tyrosine and other chemicals for the enzymatic reaction were obtained from Sigma-Aldrich. […] It is understood that research grade reagents were used for convenience, and it is preferred that the peptides be prepared to pharmaceutical grade purity, greater than 90%, preferably greater than 99% pure. Inhibition of tyrosinase by experimental peptides was determined by calorimetric detection of dopachrome, the reaction product of the substrate L-tyrosine. Mushroom tyrosinase, L-tyrosine, and a potassium phosphate buffer (pH 6.8) were added to 96-well plates containing short sequence peptides dissolved in 5% DMSO and incubated at 37° C. The absorbance at 475 nm was measured using a BIO-TEK plate reader 30 min after reaction initiation. Each experiment was performed in triplicate on 3 separate occasions. The protocol is described in further detail in Piao et al., “Mushroom Tyrosinase Inhibition Activity of Some Chromones,” Chem. Pharm. Bull. 56(3): 309-311 (2002), and in Pomerants, J. Biol. Chem 238:2351-2357 (1963). Enzyme kinetics were calculated using the Michaelis-Menton equation by observing changes in reaction velocity accompanying substrate concentrations of 0.5, 1, 2, and 4 mM L-tyrosine. Once initial reaction velocities were obtained, Lineweaver-Burke plots were created to calculate Km, Vmax, and to determine the mode of enzymatic inhibition.

[8] = test system: facial pigmentation of patients with recalcitrant melasma; assay: Clinical study in patients with recalcitrant melasma; type: in vivo, human; details: peptide in liposomes at 1%
Source text: Patients with recalcitrant melasma (those that failed over the counter products, or HQ 4% for six months, or Tri-luma® Cream for six months) were randomized and blinded to two treatment groups (vehicle and peptide). Patients applied each product twice per day followed by a sunscreen with a sun protection factor of 30 Qam. Patients were then asked to rate the percentage improvement in their facial pigmentation using a nominal scale of 0-100, with 0 corresponding to no change and 100 corresponding to complete resolution. The results are shown in FIG. 3, in which the PLG-OH peptide is shown to be rated as 40-50% improvement, where vehicle caused no improvement. The peptide was formulated in liposomes at 1%, and the control was the liposomes alone.

[9] = test system: B16-F10 mouse melanoma cells; assay: Cell viability by MTT assay in B-16 pigmentation assay; type: cell-based
Protocol: (§2) The B-16 pigmentation assay used B16-F10 mouse melanoma cells (ATCC CRL-6475) grown in DMEM, DMEM without phenol red, FBS, antibiotics, L-glutamine and other standard components. Cells were counted in a Packard Spectracount (microplate spectrophotometer) filtered at 540 nm and 570 nm. The cells were cultured with growth medium and incubated for 24 hrs. at 37° C. and 10% CO2. Cells were treated with 200 μl of growth medium containing test active ingredient and incubated at 37° C. and 10% CO2. After 7 days, the cells were read at 540 nm using the Packard microplate reader. Cell viability was assessed using the MTT assay (Mosmann T. Rapid colorimetric assay for cellular growth and survival: application to proliferation and cytotoxicity assays. J Immunol Methods. 1983 Dec. 16; 65(1-2):55-63), which is used to determine the number of living cells in a sample.

[10] = test system: B16-F10 mouse melanoma cells; assay: B-16 pigmentation assay; type: cell-based; details: concentration tested 8 mM, 7 days
Protocol: as §2

[11] = Stability testing of 1% peptide solutions by HPLC/MS; details: 1% solution, sealed tube, ambient, HPLC or MS, 4 months
Protocol: A sixth peptide, VLLK (SEQ ID NO: 3), was used as inner standard for quantitative evaluation of other peptide stability.
HPLC/MS: A 1% solution was prepared for each peptide and sealed in a tube, which was kept in ambient environment. High Performance Liquid Chromatography (HPLC) and Mass Spectroscopy (MS) were tested periodically at an approximate time range of 30 days. A fresh 1% VLLK (SEQ ID NO: 3) solution used as inner standard was prepared on the same day of each test. The amount of each peptide was determined by its peak area relative to that of VLLK (SEQ ID NO: 3).

[12] = Solubility in tyrosinase assay buffer; type: physicochemical; details: 8 mM

Compound: Oc1ccc(O)cc1 [HQ, Hydroquinone]
- melanin content [1]: slightly reduced
- IC50 [2]: ~700 µM
- cell death [3]: 100%
- inhibitory effects on melanocyte proliferation rates [4]: did not show inhibitory effects
- reduction of cellular tyrosinase activity ([5]; 10 μM): 28.8%

Compound: O=c1cc(CO)occ1O [Kojic Acid, 5-hydroxy-2-(hydroxymethyl)-4-pyrone, reference compound]
- % Tyrosinase inhibition ([6]; concentration tested 0.25%): 94%

Compound: PLG-OH [tripeptide PLG with native amino and carboxy termini, distinguished from PLG-NH2]
- IC50 [7]: 2730 µM
- side effects (erythema, scaling, contact dermatitis reaction, comedone formation) ([8]; 4-month exposure): no side effects
- percentage improvement in facial pigmentation ([8]; patient-rated scale 0-100, applied twice per day): 40-50%
- cytotoxicity (printed in the % Depigmentation column) ([9]; concentration tested 3 mM): cyto-toxic
- % Tyrosinase inhibition ([6]; concentration tested 3 mM): 6%
- considered effective in these assays [6]: Neither SF peptide nor PLG was considered effective

Compound: RADSRADC [RA peptide, RADSRADC]
- Viability ([9]; 150, 300 and 450 uM): not significantly affected
- reduction of cellular tyrosinase activity ([5]; 1 μM): 1.2%
- reduction of cellular tyrosinase activity ([5]; 10 μM): 15.6%
- reduction of cellular tyrosinase activity ([5]; 100 μM): 21.1%

Compound: SFLLRN [SF peptide]
- % Depigmentation (B-16 Assay) [10]: 0%
- degradation [11]: did not show degradation
- considered effective in these assays [6]: Neither SF peptide nor PLG was considered effective
- solubility in buffer [12]: ND (insoluble

Compound: VLLK [VL peptide, reference compound]
- IC50 (result in words) [7]: no effect

— US8026208B2, “Peptide tyrosinase inhibitors and uses thereof” (The Board of Trustees of the Leland Stanford Junior …, priority 2007, dated 2011)
